PMC9405123, “Design, Synthesis and Mechanistic Studies of Novel Isatin-Pyrazole Hydrazone Conjugates as Selective and Potent Bacterial MetAP Inhibitors” (Antibiotics, 2022)
In brackets after ≈: the same amount, converted by molar mass. Like-named read-outs stand apart in the source and are kept apart here.

Legend:
MtMetAP1c = target: T1, MtMetAP1c (Mycobacterium tuberculosis, UniProt P9WK19); assay: MetAP enzyme inhibition, Morrison Ki (Met-AMC fluorescence); format: biochemical, M. tuberculosis; conditions: Morrison Ki method
T1 construct: made in house
T1 sequence (P9WK19 whole entry): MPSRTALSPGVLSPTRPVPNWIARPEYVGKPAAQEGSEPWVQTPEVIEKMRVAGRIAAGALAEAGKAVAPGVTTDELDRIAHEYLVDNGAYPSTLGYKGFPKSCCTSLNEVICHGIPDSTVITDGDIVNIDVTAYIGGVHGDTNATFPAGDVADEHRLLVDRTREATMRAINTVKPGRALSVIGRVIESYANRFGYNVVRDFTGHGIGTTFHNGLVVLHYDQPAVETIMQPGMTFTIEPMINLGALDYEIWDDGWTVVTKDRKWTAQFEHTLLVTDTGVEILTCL
Method: MetAP appears to serve a vital role in the co- or post-translational modification of proteins, making it essential for bacterial cell metabolism and survival. In this study, all enzymes, which were used for this study, including MtMetAP1c (M. tuberculosis), EfMetAP1a (E. faecalis), SpMetAP1a (S. pneumoniae) and HsMetAP1b (H. sapiens) enzymes, were expressed and purified in our lab as previously reported. All compounds prepared 10 mM stocks in DMSO and were used for enzyme inhibition studies. The concentration of each enzyme is adjusted such that they have similar reaction rates (HsMetAp1b, 1 µM; SpMetAP1a, 5 µM; EfMetAP1a, 1 µM; MtMetAP1c, 1 µM;) as reported earlier. All assays were performed in […] reaction containing 50 mM HEPES (pH 7.5 for SpMetAP1a and HsMetAP1b; 8.0 for EfMetAP1a, MtMetAP1c, […]), 150 mM NaCl, and CoCl2 (three molar equivalents of corresponding enzymes). The reaction was started by adding 50 μM L-Methionine 7-amido-4-methyl coumarin (Met-AMC) and continuously monitoring the fluorescence of released 7-amino-4-methyl coumarin (AMC) (380 nm excitation and 460 nm emission) in a microplate multimode reader (TECAN, Austria). The maximum percentage of inhibition against enzymes is calculated at […] compound concentration. […] The Ki values were determined according to the Morrison method using three different concentrations of substrates and ten different concentrations of the inhibitor. All experiments were performed in triplicate. GraphPad Prism version 8.0.0 (San Diego, CA, USA) was used to determine all the kinetic parameters.

EfMetAP1a = EfMetAP1a (Enterococcus faecalis, UniProt Q832M5); assay: as above; format: biochemical; conditions: Morrison Ki method
EfMetAP1a, sequence (Q832M5 entry or part of it): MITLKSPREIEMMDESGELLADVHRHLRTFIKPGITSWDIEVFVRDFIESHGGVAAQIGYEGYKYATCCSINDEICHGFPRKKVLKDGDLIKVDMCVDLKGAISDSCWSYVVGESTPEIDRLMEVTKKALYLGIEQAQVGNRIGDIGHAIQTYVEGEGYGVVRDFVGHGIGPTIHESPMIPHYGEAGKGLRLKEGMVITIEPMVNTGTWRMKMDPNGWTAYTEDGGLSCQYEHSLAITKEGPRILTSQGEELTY

SpMetAP1a = SpMetAP1a (Streptococcus pneumoniae, UniProt Q8DPV1); assay: as above; format: biochemical; conditions: Morrison Ki method
SpMetAP1a, sequence (Q8DPV1 entry or part of it): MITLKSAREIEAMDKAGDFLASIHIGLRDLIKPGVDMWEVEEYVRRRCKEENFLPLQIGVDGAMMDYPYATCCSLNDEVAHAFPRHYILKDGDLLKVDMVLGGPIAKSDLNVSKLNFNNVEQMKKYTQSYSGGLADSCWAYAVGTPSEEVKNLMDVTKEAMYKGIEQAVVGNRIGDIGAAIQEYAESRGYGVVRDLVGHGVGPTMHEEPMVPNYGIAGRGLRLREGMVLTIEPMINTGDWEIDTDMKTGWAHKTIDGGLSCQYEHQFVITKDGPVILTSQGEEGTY

HsMetAP1b = target: T2, HsMetAP1b (Homo sapiens, UniProt P53582); assay: as above; format: biochemical, H. sapiens; conditions: Morrison Ki method
T2 construct: made in house

E. faecalis [1] = assay: Growth inhibition screening (broth dilution); format: cell-based, Enterococcus faecalis
Method: (§1) In vitro screening of the compounds (PS1–14) was performed to assess the antibacterial activity against three Gram-positive (Staphylococcus aureus, Enterococcus faecalis and Bacillus subtilis,) and three Gram-negative (Pseudomonas aeruginosa, Klebsiella pneumonia and Escherichia coli) bacterial strains using the standard NCCLS broth dilution assay. The study’s standard drugs were ciprofloxacin (CIP) and ampicillin (AMP). Compounds were dissolved in a polar solvent (DMSO) and distributed into a 96-well plate in 200 µL of nutrient broth medium, with a final concentration of the compounds […] in each well. The bacterial cells (about 2.5 × 10^5 cells/mL) were inoculated into each well and incubated at 37 °C overnight. After incubation, the growth was measured by turbidity of the culture at 590 nm by spectrophotometer.

B. subtilis [2] = assay: Growth inhibition screening (broth dilution); format: cell-based, Bacillus subtilis
Method: as §1

S. aureus [3] = assay: Growth inhibition screening (broth dilution); format: cell-based, Staphylococcus aureus; conditions: Staphylococcus aureus
Method: as §1

P. aeruginosa [4] = assay: Growth inhibition screening (broth dilution); format: cell-based, Pseudomonas aeruginosa
Method: as §1

E. coli [5] = assay: Growth inhibition screening (broth dilution); format: cell-based, Escherichia coli
Method: as §1

K. pneumoniae [6] = assay: Growth inhibition screening (broth dilution); format: cell-based, Klebsiella pneumonia
Method: as §1

E. faecalis [7] = assay: Minimum inhibitory concentration (broth dilution); format: cell-based; conditions: Enterococcus faecalis, alone
B. subtilis [8] = assay: Minimum inhibitory concentration (broth dilution); format: cell-based; conditions: Bacillus subtilis, alone
S. aureus [9] = assay: Minimum inhibitory concentration (broth dilution); format: cell-based; conditions: Staphylococcus aureus, alone
P. aeruginosa [10] = assay: Minimum inhibitory concentration (broth dilution); format: cell-based; conditions: Pseudomonas aeruginosa, alone
E. coli [11] = assay: Minimum inhibitory concentration (broth dilution); format: cell-based, Escherichia coli; conditions: Escherichia coli, alone, read-out: MIC
K. pneumoniae [12] = assay: Minimum inhibitory concentration (broth dilution); format: cell-based, Klebsiella pneumonia; conditions: Klebsiella pneumoniae, alone, read-out: MIC
E. faecalis [13] = assay: Minimum bactericidal concentration; format: cell-based, Enterococcus faecalis
B. subtilis [14] = assay: Minimum bactericidal concentration; format: cell-based, Bacillus subtilis
S. aureus [15] = assay: Minimum bactericidal concentration; format: cell-based, Staphylococcus aureus
P. aeruginosa [16] = assay: Minimum bactericidal concentration; format: cell-based, Pseudomonas aeruginosa
E. coli [17] = assay: Minimum bactericidal concentration; format: cell-based, Escherichia coli
K. pneumoniae [18] = assay: Minimum bactericidal concentration; format: cell-based, Klebsiella pneumonia
E. faecalis [19] = assay: Combination study with AMP or CIP
B. subtilis [20] = assay: Combination study with AMP or CIP
S. aureus [21] = assay: Combination study with AMP or CIP
P. aeruginosa [22] = assay: Combination study with AMP or CIP
E. coli [23] = assay: Combination study with AMP or CIP
K. pneumoniae [24] = assay: Combination study with AMP or CIP
Staphylococcus aureus = conditions: cited from earlier work

Structure (SMILES): O=C1Nc2cc(Cl)c(F)cc2/C1=N\NC(=O)c1cc(-c2cccc(Br)c2)n[nH]1 [PS6, (E)-3-(3-Bromophenyl)-N′-(6-Chloro-5-Fluoro-2-Oxoindolin-3-Ylidene)-1H-Pyrazole-5-Carbohydrazide]
- Ki (MtMetAP1c): 740 ± 60 nM
- Ki (EfMetAP1a): 1650 ± 310 nM
- Ki (SpMetAP1a): 2550 ± 110 nM
- Ki (HsMetAP1b): 172000 ± 4800 nM
- inhibition at 250 µg/mL (E. faecalis [1]; Enterococcus faecalis): > 70%
- % Growth Inhibition at 250 µg/mL (E. faecalis [1]; listed as C00006): 73%
- % Growth Inhibition at 250 µg/mL (B. subtilis [2]): more than 70%
- % Growth Inhibition at 250 µg/mL (B. subtilis [2]; listed as C00006): 100%
- inhibition at 250 µg/mL (S. aureus [3]): 61%
- % Growth Inhibition at 250 µg/mL (P. aeruginosa [4]): more than 70%
- % Growth Inhibition at 250 µg/mL (P. aeruginosa [4]; listed as C00006): 100%
- % Growth Inhibition at 250 µg/mL (E. coli [5]): more than 70%
- % Growth Inhibition at 250 µg/mL (E. coli [5]; listed as C00006): 97%
- inhibition at 250 µg/mL (K. pneumoniae [6]; Klebsiella pneumoniae): > 70%
- % Growth Inhibition at 250 µg/mL (K. pneumoniae [6]; listed as C00006): 80%
- MIC (E. faecalis [7]): 16 µg/mL (≈ 34.6 µM)
- MIC (B. subtilis [8]): 8 µg/mL (≈ 17.3 µM)
- MIC (S. aureus [9]): 16 µg/mL (≈ 34.6 µM)
- MIC (P. aeruginosa [10]): 32 µg/mL (≈ 69.2 µM)
- MIC (E. coli [11]): 32 µg/mL (≈ 69.2 µM)
- MIC (K. pneumoniae [12]): 64 µg/mL (≈ 138 µM)
- MBC/MIC Ratio (R*) (E. faecalis [13]): 2
- MBC (E. faecalis [13]; Enterococcus faecalis): 32 µg/mL (≈ 69.2 µM)
- MBC/MIC Ratio (R*) (B. subtilis [14]): 2
- MBC (B. subtilis [14]; Bacillus subtilis): 16 µg/mL (≈ 34.6 µM)
- MBC/MIC Ratio (R*) (S. aureus [15]): 32
- MBC (S. aureus [15]; Staphylococcus aureus): 512 µg/mL (≈ 1110 µM)
- MBC/MIC Ratio (R*) (P. aeruginosa [16]): 8
- MBC (P. aeruginosa [16]; Pseudomonas aeruginosa): 256 µg/mL (≈ 553 µM)
- MBC/MIC Ratio (R*) (E. coli [17]): 8
- MBC (E. coli [17]; Escherichia coli): 256 µg/mL (≈ 553 µM)
- MBC/MIC Ratio (R*) (K. pneumoniae [18]): 2
- MBC (K. pneumoniae [18]; Klebsiella pneumoniae): 128 µg/mL (≈ 277 µM)
- melting point: 191 to 194 °C
- MIC in Combination (E. faecalis [19]; combination PS6 + AMP): 1 µg/mL
- MIC in Combination (E. faecalis [19]; combination PS6 + CIP): 4 µg/mL
- FICI (E. faecalis [19]; combination with AMP): 0.09
- FICI (E. faecalis [19]; combination with CIP): 0.31
- MIC in Combination (B. subtilis [20]; combination PS6 + AMP): 2 µg/mL
- MIC in Combination (B. subtilis [20]; combination PS6 + CIP): 8 µg/mL
- FICI (B. subtilis [20]; combination with AMP): 0.75
- FICI (B. subtilis [20]; combination with CIP): 1.06
- Mode of Interaction (B. subtilis [20]; combination with CIP): Indifferent (in between 0.5 and 4)
- MIC in Combination (S. aureus [21]; combination PS6 + AMP): 1 µg/mL
- MIC in Combination (S. aureus [21]; combination PS6 + CIP): 8 µg/mL
- FICI (S. aureus [21]; combination with AMP): 0.31
- FICI (S. aureus [21]; combination with CIP): 1
- Mode of Interaction (S. aureus [21]; combination with CIP): Indifferent (in between 0.5 and 4)
- MIC in Combination (P. aeruginosa [22]; combination PS6 + AMP): 4 µg/mL
- MIC in Combination (P. aeruginosa [22]; combination PS6 + CIP): 4 µg/mL
- FICI (P. aeruginosa [22]; combination with AMP): 0.25
- FICI (P. aeruginosa [22]; combination with CIP): 0.25
- Mode of Interaction (P. aeruginosa [22]; combination with CIP): Synergistic (FICI value is less than or equal to 0.5)
- MIC in Combination (E. coli [23]; combination PS6 + AMP): 4 µg/mL
- MIC in Combination (E. coli [23]; combination PS6 + CIP): 8 µg/mL
- FICI (E. coli [23]; combination with AMP): 0.25
- FICI (E. coli [23]; combination with CIP): 0.31
- MIC in Combination (K. pneumoniae [24]; combination PS6 + AMP): 4 µg/mL
- MIC in Combination (K. pneumoniae [24]; combination PS6 + CIP): 8 µg/mL
- FICI (K. pneumoniae [24]; combination with AMP): 0.18
- FICI (K. pneumoniae [24]; combination with CIP): 0.62
- Mode of Interaction (K. pneumoniae [24]; combination with CIP): Indifferent (in between 0.5 and 4)

Structure (SMILES): Cn1nc(C(=O)NC(=O)Nc2ccccc2)c(C(=O)c2ccccc2)c1-c1ccccc1 [D]
- MIC (Staphylococcus aureus): 310 µg/mL (≈ 730 µM)

Structure (SMILES): COc1ccc([C@]2(C)[C@@H](Cl)C(=O)N2NC(=O)c2cc(-c3ccc(Cl)cc3)n[nH]2)cc1 [C]
- MIC (Staphylococcus aureus): 0.0025 µg/mL (≈ 0.00561 µM)
